Like-named read-outs stand apart in the source and are kept apart here.
Columns and labels:
[1] = tested on: measles virus (MV); experiment: Inhibition of measles virus replication in HEK-293T cells, recombinant measles virus expressing luciferase (MV-Luc); conditions: for in vitro replication of the measles virus (MV) (luciferase activity) / in vitro replication of measles virus (MV) (luciferase activity): MV-Luc; for in vitro replication of measles virus (MV) (luciferase activity): Example 37, HEK-293T cells, FIG. 11B; for in vitro replication of measles virus expressing luciferase: Example 33, HEK-293T cells, FIG. 7; for in vitro replication of measles virus expressing luciferase / in vitro replication of measles virus (luciferase activity): 48 h; for in vitro replication of measles virus (luciferase activity): Example 32, HEK-293T cells, 1 M.O.I., 20, 10, 5 μg/ml, FIG. 6
[2] = Metabolic stability over human liver microsomes; assay type: in vitro ADME; conditions: human liver microsomes 0.5 mg/mL, 1 mM NADPH, 2.5 μM compound, 37 °C
Description: The metabolic stability of compounds DD771 and GAC50 has been measured over human liver microsomes
Incubation (n=2) • A solution comprising each compound is prepared at a concentration of 1 mM in DMSO. • Said solution is diluted 1/100 in a phosphate buffer containing 0.5 mg/mL of human liver microsomes, 1 mM NADPH and 5 mM MgCl2.
The final concentration of each compound in the assay is 2.5 μM (0.25% de DMSO). • After homogenization (30 s), 50 μL are taken and mixed to 50 μL acetonitrile in order to precipitate the proteins present in the medium and to solubilise the compound. • The mixture is vortexed during 3 min then sonicated during 3 min and finally centrifuged during 10 min at 15 000 g and 4° C. • The same treatment is done at times 15, 30, 45 and 60 minutes. • The supernatants are injected and analysed by LC-MS/MS following standard method. • In parallel, incubation is carried out and in duplicate by substituting the co-factor NADPH by an equivalent buffer volume. • A sample is taken at t=60 min only.
Analyse LC-MS/MS: • All the samples are analysed by UHPLC coupled to a triple quadruple Shimadzu LC-MS 3080.
Calculations: • Half life: […] • Intrinsec clearance: CLint=V×ln2/t1/2
k: disappearance rate constant (min^−1)
V=incubation volume/protein mass (μL/mg)

[3] = tested on: HEK-293T cells
[4] = tested on: herpes simplex virus 2 (HSV2); experiment: Antiviral activity against herpes simplex virus 2; assay type: cell-based; conditions: DNA virus
[5] = tested on: RNA viruses; experiment: Antiviral activity against nine RNA viruses (summary); conditions: 2.5 to 20 μg/ml
[6] = tested on: West-Nile virus (WNV); experiment: Inhibition of West-Nile virus (WNV) in HEK-293T cells, glycoprotein immunostaining; conditions: M.O.I.=1, compounds at 5 μg/ml, FIG. 1
[7] = tested on: RSV B1; experiment: Inhibition of human respiratory syncytial virus in MRC5 cells, flow cytometry (RSV B1); assay type: cell-based; conditions: M.O.I of 1, 20, 10 μg/ml, 48 h, FIG. 4
Description: (§1) After 24 h, cell culture medium was removed, and cells were incubated for at 37° C. in the presence RSV A2 or RSV B1 at a M.O.I of 1. […] After 48 h, cells were harvested, treated with Cytofix/Cytoperm fixation/permeabilization solution (Becton-Dickinson), and stained with anti-H antibodies (ab20391, Abeam) to detect the virus glycoprotein. The percentage of infected cells was determined by flow cytometry analysis. Interferon beta (IFN-β) was used as a reference.

[8] = tested on: ISRE-luciferase construct; experiment: Stimulation of the ISRE-luciferase construct; assay type: cell-based; conditions: selection screen
[9] = tested on: RSV A2; experiment: Inhibition of human respiratory syncytial virus in MRC5 cells, flow cytometry (RSV A2); assay type: cell-based; conditions: M.O.I of 1, 20, 10 μg/ml, 48 h, FIG. 4
Description: as §1

[10] = tested on: human parainfluenza virus type 3 (hPIV3); experiment: Inhibition of human parainfluenza virus type 3 in HEK-293T cells, glycoprotein immunostaining; assay type: cell-based; conditions: 1 M.O.I., 2.5, 5, 10, 20 μg/ml, 48 h, FIG. 3
Source text: Culture medium was removed, and cells were fixed in 90% acetone. Infected cells were stained with a FITC-conjugated monoclonal antibody (17-038; Argene) to detect the virus glycoprotein (green fluorescence). Cells were counterstained with Evans blue (red fluorescence).

[11] = tested on: HEK-293T cells; experiment: Cellular toxicity in HEK-293T cells (intracellular ATP, CellTiter-Glo); conditions: for cellular toxicity (intracellular ATP, CellTiter-Glo): HEK-293T cells, FIG. 12C
[12] = tested on: coxsackievirus B3; experiment: Inhibition of coxsackievirus B3 in HEK-293T cells, virus titers by TCID50; assay type: cell-based; conditions: 0.1 M.O.I., 10 μg/ml, 24 h, FIG. 5
Description: Finally, supernatants were harvested, and virus titers were determined by TCID50 (Tissue Culture Infecting Dose) on vera cells.

[13] = tested on: herpes simplex virus 1 (HSV1); experiment: Antiviral activity against herpes simplex virus 1; assay type: cell-based; conditions: DNA virus
[14] = tested on: dengue virus (serotype 4); experiment: Inhibition of dengue virus replication in HEK-293T cells, glycoprotein immunostaining; assay type: cell-based; conditions: 0.1 M.O.I., 5, 10, 20 μg/ml, 72 h, FIG. 2
Source text: Culture medium was removed, and cells were fixed in 90% acetone. Finally, infected cells were stained for dengue virus glycoprotein expression using a 1/1000 dilution of a specific antibody (clone 1H10-6; Millipore) in PBS+5% goat serum.

[15] = tested on: human coronavirus 229E (229E); experiment: Inhibition of human coronavirus 229E in MRC5 cells, spike glycoprotein immunostaining; conditions: M.O.I.=0.01, compounds at 20 μg/ml, FIG. 1
[16] = Example 34, HEK-293T cells, 48 hours, FIG. 8
[17] = Example 36, HEK-293T cells, 24 hours, FIG. 10

O=C1CCCC2=C1C(c1ccccc1Cl)C([N+](=O)[O-])O2 (centres unmarked)
melting point: 162 to 163 °C

O=C1CCCc2occ(-c3ccc(Cl)cc3)c21
melting point: 104 to 105 °C

COc1cc(-c2coc3c2C(=O)CCC3)cc(OC)c1OC
melting point: 140 to 141 °C

C=Cc1cccc(-c2coc3c2C(=O)CCC3)c1 [GAC50, 3-(3-ethenylphenyl)-6,7-dihydro-5H-benzofuran-4-one]
in vitro replication of the measles virus (MV) (luciferase activity) [1, 16]: blocked | in vitro replication of measles virus (MV) (luciferase activity) ([1]; 24 hours): blocked | melting point: 88 to 89 °C | half-life at 2.5 μM [2]: 11.3 min | microsomal CLint at 2.5 μM ([2]; read-out: Intrinsic Clearance): 49.1 µL/min/mg

3-(1H-5-methylindol-3-yl)-2-nitro-2,3-dihydrofuro[3,2-c]chromen-4-one [DD778]
in vitro replication of the measles virus (MV) (luciferase activity) [1, 17]: blocked

CC(=O)C1=C(C)OC([N+](=O)[O-])C1c1cccc(Cl)c1 (centres unmarked)
melting point: 84 to 85 °C

O=C1CCCc2occ(-c3cccc(F)c3)c21
melting point: 65 to 66 °C

ON=C1CCCc2occ(-c3cccc(Cl)c3)c21
melting point: 157 to 158 °C

O=C1CCCc2occ(-c3cccc(Br)c3)c21
melting point: 106 to 107 °C

O=C1CCCc2occ(-c3cc(Cl)cc(Cl)c3)c21
melting point: 105 to 106 °C

COc1ccc(Cl)cc1C1C2=C(CCCC2=O)OC1[N+](=O)[O-] (centres unmarked)
melting point: 171 to 172 °C

3-(1H-5-fluoroindol-3-yl)-2-nitro-2,3-dihydrofuro[3,2-c]chromen-4-one [DD776]
in vitro replication of the measles virus (MV) (luciferase activity) [1, 17]: blocked

3-(1H-5-chloroindol-3-yl)-2-nitro-2,3-dihydrofuro[3,2-c]chromen-4-one [DD771]
in vitro replication of the measles virus (MV) (luciferase activity) [1, 17]: blocked | in vitro replication of measles virus (MV) (luciferase activity) ([1]; 24 hours): blocked | cellular toxicity (intracellular ATP, CellTiter-Glo) [3]: acceptable cytotoxicity | Half life [2]: No significative metabolism | Intrinsic Clearance [2]: No significative metabolism

O=C1CCCc2occ(-c3ccccc3Cl)c21
melting point: 147 to 148 °C

O=C1CCCc2occ(-c3ccc(Cl)c(Cl)c3)c21
melting point: 122 to 123 °C

COc1cccc(-c2coc3c2C(=O)CCC3)c1
melting point: 79 to 80 °C

O=C1CCCc2occ(-c3cccc(I)c3)c21 [GAC25, 3-(3-iodophenyl)-6,7-dihydro-5H-benzofuran-4-one]
in vitro replication of measles virus expressing luciferase [1]: blocked | in vitro replication of the measles virus (MV) (luciferase activity) [1, 16]: blocked | melting point: 135 to 136 °C

CC1CC(=O)c2c(-c3cccc(Cl)c3)coc2C1 (centres unmarked)
melting point: 121 to 122 °C

CC1(C)CC(=O)c2c(-c3cccc(Cl)c3)coc2C1
melting point: 104 to 105 °C

O=C1CCCc2occ(-c3cccc(Cl)c3)c21 [Example 129-G03, 3-(3-chlorophenyl)-6,7-dihydro-5H-benzofuran-4-one]
effects against HSV2 [4]: no effects | cytopathic effects at concentrations blocking RNA virus replication [5]: no detectable cytopathic effects | in vitro replication of WNV (glycoprotein expression by immunostaining) [6]: blocked | in vitro replication of measles virus (luciferase activity) [1]: blocked | in vitro replication of measles virus expressing luciferase [1]: blocked | in vitro replication of the measles virus (MV) (luciferase activity) [1, 16]: blocked | in vitro replication of the measles virus (MV) (luciferase activity) [1, 17]: blocked | in vitro replication of measles virus (MV) (luciferase activity) ([1]; 24 hours): blocked | in vitro replication of hRSV serotype B1 (percentage of infected cells) [7]: blocked | melting point: 87 to 88 °C | ability to stimulate the ISRE-luciferase construct [8]: ability to stimulate the ISRE-luciferase construct | in vitro replication of hRSV serotype A2 (percentage of infected cells) [9]: blocked | in vitro replication of human parainfluenza virus type 3 [10]: blocked | cellular toxicity (intracellular ATP, CellTiter-Glo) [11]: acceptable cytotoxicity | cytotoxic effects on HEK-293T cells ([11]; selection screen): absence of cytotoxic effects | in vitro production of coxsackievirus B3 (virus titers by TCID50) [12]: blocked | effects against HSV1 [13]: no effects | in vitro replication of dengue virus (serotype 4) [14]: blocked | in vitro replication of 229E (spike glycoprotein expression by immunostaining) [15]: blocked

O=c1oc2ccccc2c2c1C(c1c[nH]c3ccccc13)C([N+](=O)[O-])O2 (centres unmarked) [Example 123-G05, 3-(1H-Indol-3-yl)-2-nitro-2,3-dihydrofuro[3,2-c]chromen-4-one]
effects against HSV2 [4]: no effects | cytopathic effects at concentrations blocking RNA virus replication [5]: no detectable cytopathic effects | in vitro replication of WNV (glycoprotein expression by immunostaining) [6]: blocked | in vitro replication of measles virus (luciferase activity) [1]: blocked | in vitro replication of hRSV serotype B1 (percentage of infected cells) [7]: blocked | melting point: 248 to 250 °C (dec.) | ability to stimulate the ISRE-luciferase construct [8]: ability to stimulate the ISRE-luciferase construct | in vitro replication of hRSV serotype A2 (percentage of infected cells) [9]: blocked | in vitro replication of human parainfluenza virus type 3 [10]: blocked | cellular toxicity (intracellular ATP, CellTiter-Glo) [11]: acceptable cytotoxicity | in vitro production of coxsackievirus B3 (virus titers by TCID50) [12]: blocked | effects against HSV1 [13]: no effects | in vitro replication of dengue virus (serotype 4) [14]: blocked | in vitro replication of 229E (spike glycoprotein expression by immunostaining) [15]: blocked | cytotoxic effects on HEK-293T cells [3]: absence of cytotoxic effects

COc1ccc(Cl)cc1-c1coc2c1C(=O)CCC2
melting point: 136 to 137 °C

O=C1CCCc2occ(-c3cccc([N+](=O)[O-])c3)c21
melting point: 94 to 95 °C

Reference: patent US9315482B2, “Derivatives useful as antiviral agents” (priority 2010, dated 2016)
